Source: ChEMBL document CHEMBL1201862, “PubChem BioAssay data set” (2004)
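48-hour exposure; five concentrations; linearly interpolated endpoints. GI50 marks 50% less growth.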 Active and inactive are the calls of the source. Rule as the data show it: active = GI50 up to about 1.1 µM and inactive = higher.

Legend:
Experiment in all cases: NCI tumour cell line growth inhibition, 48 h
SNB-75 = test system: SNB-75
LOX IMVI = test system: LOX IMVI
SK-MEL-28 = test system: SK-MEL-28
HL-60 = test system: HL-60
OVCAR-5 = test system: OVCAR-5
MDA-N = test system: MDA-N
OVCAR-3 = test system: OVCAR-3
SR = test system: SR
NCI/ADR-RES = test system: NCI/ADR-RES
M14 = test system: M14
NCI-H226 = test system: NCI-H226
OVCAR-4 = test system: OVCAR-4
SF-268 = test system: SF-268
786-0 = test system: 786-0
KM12 = test system: KM12
SF-539 = test system: SF-539
UACC-257 = test system: UACC-257
HOP-92 = test system: HOP-92
DMS-114 = test system: DMS-114
A549 = test system: A549

With COCC(C#N)NC1CC(OC2CC(O)(C(=O)CO)Cc3c(O)c4c(c(O)c32)C(=O)c2c(OC)cccc2C4=O)OC(C)C1O (stereo not given) the GI50 (SNB-75) was 56.4 nM (active), the GI50 (LOX IMVI) was 29.2 nM (active) and the GI50 (SK-MEL-28) was 156 nM (active). For the same compound, the GI50 (HL-60) was 19.3 nM (active), the GI50 (OVCAR-5) was 247 nM (active) and the GI50 (MDA-N) was 97.5 nM (active). The GI50 (OVCAR-3) was 153 nM (active), the GI50 (SR) was < 11.1 nM (active) and the GI50 (NCI/ADR-RES) was 1820 nM (inactive). For the same compound, the GI50 (M14) was 134 nM (active), the GI50 (NCI-H226) was 27.8 nM (active) and the GI50 (OVCAR-4) was 282 nM (active). The GI50 (SF-268) was 41.9 nM (active), the GI50 (786-0) was 43.4 nM (active) and the GI50 (KM12) was 103 nM (active). The GI50 (SF-539) was 41.5 nM (active), the GI50 (UACC-257) was 91 nM (active) and the GI50 (HOP-92) was 393 nM (active). The GI50 (DMS-114) was 36.1 nM (active) and the GI50 (A549) was 52.1 nM (active).
